Results: PMC12691742, “Anti-Cancer Outcome of Glucocorticoid Receptor Transrepression by Synephrine Derivatives in Hematological Malignancies” (International Journal of Molecular Sciences, 2025)

Assays:
[1] = test system: NF-kB activity in K562 cells; assay: NF-kB.Luc reporter assay in K562 cells; assay type: cell-based; conditions: 5 h, 10S-E2 1 µM
Procedure: (§1) We analyzed GR TR function using an NF-kB.Luc reporter assay with the irritating inflammatory agent phorbol 13-acetate 12-myristate (TPA) as an inducer of NF-kB signaling and positive control.
Figure 4 Effects of synephrine derivatives on GR transrepression in Granta lymphoma and K562 leukemia cells. (A) K562 and Granta cells stably infected with the lentiviruses bearing the NF-kB luciferase reporter. Cells were incubated for 5 h with the solvent (control), TPA (5 ng/mL), 4S-C2 (10 µM), 8S-E3 (10 µM), 10S-E2 (1 µM), or 13S-G2 (1 µM). Luciferase activity was determined as described in the Materials and Methods section. (B) IL1-α and IL6 mRNA expression in K562 and Granta cells. […] The mean ± SD was calculated for three individual samples/condition (n = 3). […]
Lentiviral stocks were generated using the lentiviral expression vector NF-kB. […] The infection efficiency exceeded 90% (tracked by GFP fluorescence).
(§2) Cells (10^4 cells/well in a 24-well plate), stably expressing Firefly Luciferase under the NF-kB promoter, were treated for 5 h with TPA (12-O-tetradecanoylphorbol-13-acetate, Boston, MA, USA, 10 ng/mL), 4S-C2 (10 µM), 8S-E3 (10 µM), 10S-E2 (1 µM), 13S-G2 (1 µM), or the vehicle. Luciferase activity was measured as described using a commercial Luciferase Assay (“Promega”, Madison, WI, USA) and Luminometer TD 20/20 (“Turner Design Instruments”, San Jose, CA, USA). […]

[2] = test system: NF-kB activity in Granta cells; assay: NF-kB.Luc reporter assay in Granta cells; assay type: cell-based; conditions: 5 h, 10S-E2 1 µM
Procedure: as §1
Figure 4 Effects of synephrine derivatives on GR transrepression in Granta lymphoma and K562 leukemia cells. (A) K562 and Granta cells stably infected with the lentiviruses bearing the NF-kB luciferase reporter. Cells were incubated for 5 h with the solvent (control), TPA (5 ng/mL), 4S-C2 (10 µM), 8S-E3 (10 µM), 10S-E2 (1 µM), or 13S-G2 (1 µM). Luciferase activity was determined as described in the Materials and Methods section. (B) IL1-α and IL6 mRNA expression in K562 and Granta cells. Q-PCR results were normalized to the expression of the housekeeping gene RPL27 and are presented as the fold change compared to the control. The mean ± SD was calculated for three individual samples/condition (n = 3). Statistically significant differences compared to the control: * p < 0.05, ** p < 0.01.
Lentiviral stocks were generated using the lentiviral expression vector NF-kB. Luc was encoded with Firefly Luciferase reporters with the NF-kB-responsive promoter of minimal CMV promoter as a control (“System Bioscience”, Moutain View, CA, USA), along with packing plasmids GAG, REV, and VSVg. HEK-293T cells were transfected with the abovementioned plasmids using TurboFect reagent (“Thermo Scientific”, Waltham, MA, USA) according to the manufacturer’s protocol. […] The infection efficiency exceeded 90% (tracked by GFP fluorescence).
as §2

[3] = test system: Granta cells; assay: Cell cycle analysis by PI flow cytometry in Granta cells; assay type: cell-based; conditions: 24 h, 10S-E2 6.25 µM
Procedure: (§3) Figure 5 Pro-apoptotic and anti-cancer effects of synephrine derivatives in vitro and in vivo. (A) Effect of 4S-C2, 8S-E3, 10S-E2, and 13S-G2 on cell cycle progression in K562 and Granta cells after 24 h of incubation. The cells were fixed with ethanol, stained with propidium iodide, and analyzed using flow cytometry. Statistically significant difference compared to control: *—p < 0.05, **—p < 0.01 (n = 3). (B) In vivo anti-cancer activity was evaluated using the transplantable P388 murine lymphoma model. […] Tumor nodule size was measured twice a week using digital calipers. Statistically significant differences compared to the control: * p < 0.05, ** p < 0.01.
(§4) The distribution of cells by cell cycle phases was evaluated using propidium iodide (PI) staining, as described in [19]. […] After incubation, the cells were resuspended in 70% ethanol and fixed for 2h at 4 °C. Cells were then washed twice with cold PBS, pH 7.4, and stained with 500 µL of cold propidium iodide (PI) solution (50 µg/mL PI, 1% Triton X-100, and 100 µg/mL RNase A in PBS). The cell cycle distribution of cells in samples was analyzed using an FACSCalibur Flow Cytometer (“BD Biosciences”, San Jose, CA, USA). The experiments were performed in triplicate.

[4] = test system: K562 cells; assay: Cell cycle analysis by PI flow cytometry in K562 cells; assay type: cell-based; conditions: 24 h, 10S-E2 6.25 µM
Procedure: as §3, §4

[5] = test system: P388 murine lymphoma; assay: Transplantable P388 murine lymphoma model; assay type: in vivo, mice; conditions: P388 model; Dex 1 mg/kg, 10S-E2 10 mg/kg i.p. 3 times per week
Procedure: as §3
The protocol for the experiment was approved by the local N.N. Blokhin National Medical Research Center Ethics Committee and corresponded to the guidelines for the welfare and use of animals in cancer research adopted by The United Kingdom Coordinating Committee on Cancer Prevention Research. P388 cells were injected i.p. into 5-week-old female DBA/2 mice (“Stolbovaya Farm”, Stolbovaya, Russia). After 15 days, the cells were collected from the peritoneum, washed, and resuspended in PBS. For the experiments, 0.1 mL containing 2 million cells obtained from the ascites was inoculated s.c. in 5-week-old female BDF1 mice (“Stolbovaya Farm”, Stolbovaya, Russia). […] Body weight was recorded twice a week for toxicity determination. Tumor size was measured three times per week using digital calipers.

[6] = test system: Rankl, Mmp9, Tsc2, Trap, Bglap mRNA expression in bone tissue; assay: Glucocorticoid-induced osteoporosis model: Q-PCR of marker genes in bone tissue; assay type: in vivo, mice; conditions: 5 weeks; Dex 20 mg/kg, 10S-E2 10 mg/kg
Procedure: (A) H&E bone staining and quantification of cortical bone thickness. (B) Q-PCR analysis of Rankl, Mmp9, Tsc2, Trap, and Bglap mRNA expression in bone tissue. […] (C) H&E skin staining and quantification of dermal adipose thickness (50 images per treatment group of 10 animals). Statistically significant differences compared to the control: * p < 0.05, ** p < 0.01.
Total RNA isolation from cell cultures and murine bones, reverse transcription, and Q-PCR were performed as described in [36]. […] Results were normalized to the expression of the housekeeping RPL27 и Rpl27 genes. The experiments were performed in triplicate.
The protocol for the experiment was approved by the local N.N. Blokhin National Medical Research Center Ethics Committee and corresponded to the guidelines for the welfare and use of animals in cancer research adopted by The United Kingdom Coordinating Committee on Cancer Prevention Research. […] Body weight was recorded twice a week for toxicity control.

Compound: CCCCCCNCC(O)c1ccc(OCc2ccccc2)cc1 (stereo not drawn) [10S-E2, 1-[4-(benzyloxy)phenyl]-2-(hexylamino)ethanol]
- inhibition of luciferase activity (NF-kB) [1]: 60%
- effect on NF-kB activity ([2]; 4S-C2 10 µM): not statistically significant
- inhibition of luciferase activity (NF-kB) [2]: 15%
- number of cells in the G1 phase [3]: decrease in the number of cells in the G1 phase
- induction of apoptosis [4]: did not induce apoptosis
- number of cells in the G1 phase [4]: decrease in the number of cells in the G1 phase
- number of replicating cells in the S phase [4]: increased the number of replicating cells in the S phase
- animal body weight change vs control [5]: no statisticall y si gnificant differences
- Mmp9 mRNA expression in bone tissue [6]: significantly downregulated
- Rankl mRNA expression in bone tissue [6]: significantly downregulated
- Trap mRNA expression in bone tissue [6]: significantly downregulated
- Tsc2 mRNA expression in bone tissue [6]: significantly downregulated
